# Test results taken from ChEMBL document CHEMBL5465560, “Selectivity Literature for EUbOPEN Chemogenomic Library” (2024).
# How the values were obtained:
# [1] = biological target: T1, Serine/threonine-protein kinase TAO1 (Homo sapiens) (UniProt Q7L7X3); assay: Selectivity interaction (KinomeScan (DiscoverX)) EUB0000045b TAOK1
# T1 sequence (whole entry): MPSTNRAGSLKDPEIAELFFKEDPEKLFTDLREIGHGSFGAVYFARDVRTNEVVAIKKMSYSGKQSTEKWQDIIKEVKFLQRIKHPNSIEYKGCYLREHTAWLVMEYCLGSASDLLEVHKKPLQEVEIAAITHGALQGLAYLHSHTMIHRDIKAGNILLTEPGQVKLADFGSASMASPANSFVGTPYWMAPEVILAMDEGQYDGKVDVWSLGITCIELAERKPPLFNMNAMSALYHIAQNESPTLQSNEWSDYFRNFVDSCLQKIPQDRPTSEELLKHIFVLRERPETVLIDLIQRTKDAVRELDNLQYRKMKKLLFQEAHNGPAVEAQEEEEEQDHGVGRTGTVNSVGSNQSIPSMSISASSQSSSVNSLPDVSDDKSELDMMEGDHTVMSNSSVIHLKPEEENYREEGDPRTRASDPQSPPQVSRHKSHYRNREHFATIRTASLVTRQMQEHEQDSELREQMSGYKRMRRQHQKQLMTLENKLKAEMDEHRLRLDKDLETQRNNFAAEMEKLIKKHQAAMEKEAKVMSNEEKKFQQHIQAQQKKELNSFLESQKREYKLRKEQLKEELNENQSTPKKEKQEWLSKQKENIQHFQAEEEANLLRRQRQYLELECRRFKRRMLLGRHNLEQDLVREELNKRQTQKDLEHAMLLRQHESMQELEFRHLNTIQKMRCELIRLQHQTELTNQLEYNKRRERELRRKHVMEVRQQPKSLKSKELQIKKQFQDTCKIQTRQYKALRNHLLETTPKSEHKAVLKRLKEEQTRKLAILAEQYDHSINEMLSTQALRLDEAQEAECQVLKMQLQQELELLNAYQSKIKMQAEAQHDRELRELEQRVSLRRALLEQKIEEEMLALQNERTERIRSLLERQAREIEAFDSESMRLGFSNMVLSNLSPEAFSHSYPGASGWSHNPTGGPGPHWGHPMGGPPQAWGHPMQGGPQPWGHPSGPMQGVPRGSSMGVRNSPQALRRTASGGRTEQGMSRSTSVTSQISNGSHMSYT
# [2] = biological target: T2, Serine/threonine-protein kinase NLK (Homo sapiens) (UniProt Q9UBE8); assay: Selectivity interaction (KinomeScan (DiscoverX)) EUB0000607a NLK; conditions: at 10 µM
# T2 sequence (whole entry): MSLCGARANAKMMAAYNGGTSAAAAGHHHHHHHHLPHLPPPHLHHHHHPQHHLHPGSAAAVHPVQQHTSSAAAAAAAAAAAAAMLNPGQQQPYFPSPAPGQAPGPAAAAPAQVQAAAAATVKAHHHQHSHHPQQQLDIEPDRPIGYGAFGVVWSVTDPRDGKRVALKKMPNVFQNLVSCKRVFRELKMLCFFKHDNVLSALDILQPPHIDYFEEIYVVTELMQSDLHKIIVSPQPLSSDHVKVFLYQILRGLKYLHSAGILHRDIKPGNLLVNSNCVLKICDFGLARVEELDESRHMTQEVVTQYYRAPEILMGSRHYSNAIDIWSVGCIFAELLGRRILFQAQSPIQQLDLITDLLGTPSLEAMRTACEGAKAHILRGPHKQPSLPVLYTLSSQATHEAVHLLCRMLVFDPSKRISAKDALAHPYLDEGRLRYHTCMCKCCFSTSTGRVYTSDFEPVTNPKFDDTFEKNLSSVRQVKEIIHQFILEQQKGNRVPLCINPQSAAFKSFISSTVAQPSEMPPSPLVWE
# [3] = biological target: T3, Tyrosine-protein kinase Tec (Homo sapiens) (UniProt P42680); assay: Selectivity interaction (ActivX KiNativ screen (kinase selectivity in THP-1 cell lysates)) EUB0000639a TEC; format: subcellular; conditions: lysate, at 0.01 µM
# T3 sequence (whole entry): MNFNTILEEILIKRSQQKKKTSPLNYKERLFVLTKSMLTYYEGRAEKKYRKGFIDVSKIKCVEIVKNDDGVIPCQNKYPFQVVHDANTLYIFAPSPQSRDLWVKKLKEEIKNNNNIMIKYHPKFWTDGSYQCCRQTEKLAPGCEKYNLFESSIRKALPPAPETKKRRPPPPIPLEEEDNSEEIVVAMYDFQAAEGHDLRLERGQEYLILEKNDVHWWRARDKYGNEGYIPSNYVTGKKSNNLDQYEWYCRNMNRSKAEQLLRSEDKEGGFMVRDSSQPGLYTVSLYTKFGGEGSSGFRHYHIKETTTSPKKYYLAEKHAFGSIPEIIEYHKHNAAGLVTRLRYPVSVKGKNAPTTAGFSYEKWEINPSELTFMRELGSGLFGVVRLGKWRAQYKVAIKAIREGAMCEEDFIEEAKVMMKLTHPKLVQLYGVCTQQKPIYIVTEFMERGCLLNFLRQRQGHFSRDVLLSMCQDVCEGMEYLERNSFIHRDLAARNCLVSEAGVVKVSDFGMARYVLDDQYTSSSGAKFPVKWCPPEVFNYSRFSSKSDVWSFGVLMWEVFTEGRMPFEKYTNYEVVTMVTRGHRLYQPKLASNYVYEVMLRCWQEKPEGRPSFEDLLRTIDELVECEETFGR
smiles,measurement,setting,value
C=CC(=O)Nc1cc(-n2c(=O)ccc3cnc4ccc(-c5ccc(NS(C)(=O)=O)cc5)cc4c32)ccc1C,% of control,[1]; at 1 µM,100%
same,% of control,[1]; at 10 µM,79%
CNC(=O)Nc1ccc(-c2nc(N3CC4CCC(C3)O4)c3cnn(C4CCC5(CC4)OCCO5)c3n2)cc1,% of control,[2],85%
CC[C@@H]1[C@H](F)C(=O)N[C@@H]1COc1nccc2cc(C(N)=O)c(OC)cc12 [ZIMLOVISERTIB],% of inhibition,[3],-72.2%
